Measured values as given in patent US9012446B2, “Amino-oxazines and amino-dihydrothiazine compounds as beta-secretase modulators and methods of use” (Amgen Inc., priority 2010, dated 2015).
Read-outs that look alike come from different tables or passages of the source.

Key:
BACE = BACE (Homo sapiens, UniProt P56817); test: In vitro enzymatic BACE FRET assay; type: biochemical; settings: average IC50, enzyme assay; read-out: BACE 1 FRET assay
In short: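 BACE (0.2 nM) preincubated 1 h with serially diluted inhibitors in 0.05 M acetate pH 4.2, 10% DMSO, 100 uM genapol. FRET peptide substrate (50 nM) added, 1 h incubation, then stopped with Tris to neutral pH. Fluorescence from cleavage read at […].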

Aβ40 = test: In vitro BACE cell-based assay (Aβ40 sandwich ELISA, cells stably expressing APP); settings: Homo sapiens
In short: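 APP-stably-expressing cells, grown 24 h in DMEM/10% FBS, received 10-point compound doses starting at 100 μM or 10 μM (0.1% DMSO final). Secreted Aβ40 in supernatants measured by sandwich ELISA with time-resolved europium fluorescence; IC50 from percent inhibition versus concentration.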

Abeta 40 = test: In vivo inhibition of beta-secretase: Abeta 40 reduction in CSF and brain of the rat; settings: 10 mpk, after 4 hrs
Source text: In Vivo Inhibition of Beta-Secretase
Several animal models, including mouse, rat, dog, and monkey, may be used to screen for inhibition of beta-secretase activity in vivo following administration of a test compound sample. Animals used in this invention can be wild type, transgenic, or gene knockout animals. For example, the Tg2576 mouse model, prepared and conducted as described in Hsiao et al., 1996, Science 274, 99-102, and other non-transgenic or gene knockout animals are useful to analyze in vivo inhibition of Amyloid beta peptide (Abeta) production in the presence of inhibitory test compounds. Generally, 2 to 18 month old Tg2576 mice, gene knockout mice or non-transgenic animals are administered test compounds formulated in vehicles, such as cyclodextran, phosphate buffers, hydroxypropyl methylcellulose or other suitable vehicles. One to twenty-four hours following the administration of compound, animals are sacrificed, and brains as well as cerebrospinal fluid (CSF) and plasma are removed for analysis of A-beta levels and drug or test compound concentrations (Dovey et al., 2001, Journal of Neurochemistry, 76,173-181) Beginning at time 0, animals are administered by oral gavage, or other means of delivery such as intravenous injection, an inhibitory test compound of up to 100 mg/kg in a standard, conventional formulation, such as 2% hydroxypropyl methylcellulose, 1% Tween80. A separate group of animals receive 2% hydroxypropyl methylcellulose, 1% Tween80 alone, containing no test compound, and serve as a vehicle-control group. At the end of the test period, animals are sacrificed and brain tissues, plasma or cerebrospinal fluid are collected. Brains are either homogenized in 10 volumes (w/v) of 0.2% diethylamine (DEA) in 50 mM NaCl (Best et al., 2005, Journal of Pharmacology and Experimental Therapeutics, 313, 902-908), or in 10 volumes of 0.5% TritonX-100 in Tris-buffered saline (pH at about 7.6). Homogenates are centrifuged at 355,000 g, 4° C. for 30 minutes. CSF or brain supernatants are then analyzed for the presence of A-beta peptide by specific sandwich ELISA assays based on ECL (Electrochemiluminescence) technology. For example, rat Abeta40 is measured using biotinylated-4G8 (Signet) as a capture antibody and Fab40 (an in-house antibody specific to the C-terminal of Abeta40) as a detection antibody. For example, 4 hours after administration of 30 mg/kg oral dose of the test compound in 2% hydroxypropyl methylcellulose, 1% Tween80 (pH2.2) to 200 g male Sprague Dawley rats, amyloid beta peptide levels are measured for reduction by X % and Y % in cerebrospinal fluid and brain, respectively, when compared to the levels measured in the vehicle-treated rats. • Actual vehicles used: Oral: 2% HPMC, 1% Tween80, pH 2.2 • IV: 5% EtOH, 45% Propylene glycol in 5% Dextrose
The compounds of the invention may be shown to reduce the formation and/or deposition of amyloid beta peptide in the cerebrospinal fluid (CSF) as well as in the brain of a mouse or rat at either 3 mpk, 10 mpk or 30 mpk (mpk=mg compound per kg weight of the animal) dosing concentrations after 4 hrs.

[1] = HEK293, average IC50, read-out: HEK cell assay
[2] = Abeta 40, rat CSF, read-out: % reduction of rat CSF levels at 10 pmk
[3] = Abeta 40, rat brain, read-out: % reduction of rat brain levels at 10 mpk
[4] = HEK293, average IC50, cell assay, HEK cells

Chain of BACE (P56817 46-501, species assumed): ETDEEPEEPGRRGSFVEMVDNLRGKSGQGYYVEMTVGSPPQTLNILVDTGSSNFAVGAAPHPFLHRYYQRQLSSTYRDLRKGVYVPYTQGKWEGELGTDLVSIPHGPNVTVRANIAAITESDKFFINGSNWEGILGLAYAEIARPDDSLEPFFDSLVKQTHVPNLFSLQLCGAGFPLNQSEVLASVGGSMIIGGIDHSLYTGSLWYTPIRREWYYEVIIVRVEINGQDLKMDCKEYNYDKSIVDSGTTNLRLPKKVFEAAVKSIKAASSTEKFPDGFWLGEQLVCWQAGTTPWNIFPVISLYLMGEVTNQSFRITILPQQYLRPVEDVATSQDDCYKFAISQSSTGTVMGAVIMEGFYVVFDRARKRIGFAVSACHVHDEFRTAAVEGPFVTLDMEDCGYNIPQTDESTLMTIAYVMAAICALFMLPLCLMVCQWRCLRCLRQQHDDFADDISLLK

Structure (SMILES) | IC50 (BACE) [nM] | IC50 (Aβ40; [1]) [nM] | IC50 (Aβ40; [4]) [nM] | inhibition in vivo at 10 mg/kg (Abeta 40; [2]) [%] | inhibition in vivo at 10 mg/kg (Abeta 40; [3]) [%]
CC1(C#Cc2cc(F)c3c(c2)[C@]2(CCOC(N)=N2)c2cc(-c4cccnc4F)ccc2O3)COC1 [Example 17A, (S)-4′-fluoro-7′-(2-fluoropyridin-3-yl)-2′-((3-methyloxetan-3-yl)ethynyl)-5,6-dihydrospiro[[1,3]oxazine-4,9′-xanthen]-2-amine] | 3.3 | 2.6 | – | 44 | 37
CC(C)(C)COc1cnc2c(c1)[C@]1(COCC(N)=N1)c1cc(-c3cccnc3F)ccc1O2 [Example 55, (S)-7-(2-fluoropyridin-3-yl)-3-(neopentyloxy)-2′,6′-dihydrospiro[chromeno[2,3-b]pyridine-5,3′-[1,4]oxazin]-5′-amine] | 0.8 | 0.4 | – | 65 | 51
NC1=N[C@@]2(CCO1)c1cc(-c3cccnc3F)ccc1Oc1ncc(-c3ccnc(F)c3)cc12 [Example 60, (S)-7-(2-fluoropyridin-3-yl)-3-(2-fluoropyridin-4-yl)-5′,6′-dihydrospiro[chromeno[2,3-b]pyridine-5,4′-[1,3]oxazin]-2′-amine] | 12.2 | 11 | – | 56 | 25
CC1(C#Cc2cnc3c(c2)[C@]2(CCOC(N)=N2)c2cc(-c4cccnc4F)ccc2O3)COC1 [Example 61, (S)-7-(2-fluoropyridin-3-yl)-3-((3-methyloxetan-3-yl)ethynyl)-5′,6′-dihydrospiro[chromeno[2,3-b]pyridine-5,4′-[1,3]oxazin]-2′-amine] | 2.8 | 2.4 | – | 70 | 55
NC1=N[C@]2(COC1)c1cc(-c3ccnc(F)c3)ccc1Oc1ccc(-c3cccnc3F)cc12 [Example 65, (R)-2′-(2-fluoropyridin-3-yl)-7′-(2-fluoropyridin-4-yl)-2,6-dihydrospiro[[1,4]oxazine-3,9′-xanthen]-5-amine] | 1.6 | – | 18.2 | 14 | 55
NC1=N[C@@]2(COC1)c1cc(-c3cccnc3F)ccc1Oc1c(F)cc(N3CCC(F)(F)CC3)cc12 [Example 86, (S)-2′-(4,4-difluoropiperidin-1-yl)-4′-fluoro-7′-(2-fluoropyridin-3-yl)-2,6-dihydrospiro[[1,4]oxazine-3,9′-xanthen]-5-amine] | – | – | 2.6 | 12 | 11
NC1=N[C@]2(CCS1)c1cc(-c3cccnc3F)ccc1Oc1ncc(C3=CCCOC3)cc12 [compound 271] | 1040 | 2540 | – | – | –
NC1=N[C@@]2(CCS1)c1cc(-c3cccnc3F)ccc1Oc1ncc(C3=CCCOC3)cc12 [compound 272] | 4 | 11 | – | – | –

Second part, led by results:

IC50 (BACE) [nM] | IC50 (Aβ40; [1]) [nM] | IC50 (Aβ40; [4]) [nM] | Structure (SMILES) | inhibition in vivo at 10 mg/kg (Abeta 40; [2]) [%] | inhibition in vivo at 10 mg/kg (Abeta 40; [3]) [%]
0.3 | – | 1.7 | NC1=N[C@@]2(COC1)c1cc(-c3cccnc3F)ccc1Oc1cnc(-c3ccnc(F)c3)cc12 [Example 30, (S)-7-(2-fluoropyridin-3-yl)-3-(2-fluoropyridin-4-yl)-2′,6′-dihydrospiro[chromeno[2,3-c]pyridine-5,3′-[1,4]oxazin]-5′-amine] | 67 | 62
0.6 | – | 1.2 | NC1=N[C@@]2(COC1)c1cc(-c3cccnc3F)ccc1Oc1cnc(N3CCC(F)(F)CC3)cc12 [Example 32, (S)-3-(4,4-difluoropiperidin-1-yl)-7-(2-fluoropyridin-3-yl)-2′,6′-dihydrospiro[chromeno[2,3-c]pyridine-5,3′-[1,4]oxazin]-5′-amine] | 37 | 26
0.4 | – | 1.1 | CC(C)(C)COc1cc2c(cn1)Oc1ccc(-c3cccnc3F)cc1[C@@]21COCC(N)=N1 [Example 33, (S)-7-(2-fluoropyridin-3-yl)-3-(neopentyloxy)-2′,6′-dihydrospiro[chromeno[2,3-c]pyridine-5,3′-[1,4]oxazin]-5′-amine] | 61 | 48
0.4 | – | 2.9 | NC1=N[C@@]2(COC1)c1cc(-c3cccnc3F)ccc1Oc1c(F)cc(-c3ccnc(F)c3)cc12 [Example 36A, (S)-4′-fluoro-7′-(2-fluoropyridin-3-yl)-2′-(2-fluoropyridin-4-yl)-2,6-dihydrospiro[[1,4]oxazine-3,9′-xanthen]-5-amine] | 26 | 25
0.2 | – | 1.3 | CC(C)(F)COc1cc(F)c2c(c1)[C@]1(COCC(N)=N1)c1cc(-c3cccnc3F)ccc1O2 [Example 37A, (S)-4′-fluoro-2′-(2-fluoro-2-methylpropoxy)-7′-(2-fluoropyridin-3-yl)-2,6-dihydrospiro[[1,4]oxazine-3,9′-xanthen]-5-amine] | 44 | 39
0.3 | – | 3 | NC1=N[C@@]2(COC1)c1cc(-c3cccnc3F)ccc1Oc1c(F)cc(C3=CCOCC3)cc12 [Example 40, (S)-2′-(3,6-dihydro-2H-pyran-4-yl)-4′-fluoro-7′-(2-fluoropyridin-3-yl)-2,6-dihydrospiro[[1,4]oxazine-3,9′-xanthen]-5-amine] | 33 | 15
0.5 | – | 1.9 | CC1(C#Cc2cc(F)c3c(c2)[C@]2(COCC(N)=N2)c2cc(-c4cccnc4F)ccc2O3)COC1 [Example 41, (S)-4′-fluoro-7′-(2-fluoropyridin-3-yl)-2′-((3-methyloxetan-3-yl)ethynyl)-2,6-dihydrospiro[[1,4]oxazine-3,9′-xanthen]-5-amine] | 13 | 23
0.3 | – | 0.5 | NC1=N[C@@]2(COC1)c1cc(-c3cccnc3)ccc1Oc1c(F)cc(C3=CCCOC3)cc12 [Example 63, (S)-2′-(5,6-dihydro-2H-pyran-3-yl)-4′-fluoro-7′-(pyridin-3-yl)-2,6-dihydrospiro[[1,4]oxazine-3,9′-xanthen]-5-amine] | 19 | 16
0.6 | – | 5.2 | NC1=N[C@]2(COC1)c1cc(C3=CCOCC3)ccc1Oc1ccc(-c3cccnc3F)cc12 [Example 64, (R)-2′-(3,6-dihydro-2H-pyran-4-yl)-7′-(2-fluoropyridin-3-yl)-2,6-dihydrospiro[[1,4]oxazine-3,9′-xanthen]-5-amine] | 8 | 4
0.3 | – | 2.7 | NC1=N[C@@]2(COC1)c1cc(-c3cccnc3F)ccc1Oc1cnc(-c3ccc(F)c(F)c3)cc12 [Example 73, (5S)-3-(3,4-difluorophenyl)-7-(2-fluoro-3-pyridinyl)-6′H-spiro[chromeno[2,3-c]pyridine-5,3′-[1,4]oxazin]-5′-amine] | 62 | 42
0.4 | – | 0.8 | NC1=N[C@@]2(COC1)c1cc(-c3cccnc3F)ccc1Oc1cnc(N3CCC(F)(F)C3)cc12 [Example 74, (5S)-3-(3,3-difluoro-1-pyrrolidinyl)-7-(2-fluoro-3-pyridinyl)-6′H-spiro[chromeno[2,3-c]pyridine-5,3′-[1,4]oxazin]-5′-amine] | 47 | 26
